What is called melting point is the temperature of the solid-liquid transition.

For the compound `CC(C)=CCNC(=N)N`, the melting point was found to be 62.5 °C.
The compound `CCOc1cc(OCC)c(C(=O)CCC(=O)O)cc1OCC` had a melting point of 150 °C.
The compound `CCN1CN(CC)CN(CC)C1` returned a melting point of 70 °C.
In turn, `C=C1C(=O)C23C(OC(C)=O)CC4C5(C)CCCC4(C(OC)OC5)C2C(OC(C)=O)CC1C3OC(C)=O` (configuration not stated) had a melting point of 71 °C.
In turn, `CN(C)c1ccc(F)cc1` registered a melting point of 36 °C.
The figure for `O=C1C=C(NCc2ccccn2)C(=O)c2ccccc21` is 149 °C; for `O=S1(=O)CC(Br)C(Br)C1` (configuration not stated) it is 143 °C; for `Clc1ccc(Cc2c(N=Cc3ccc4c(c3)OCO4)n[nH]c2N=Cc2ccc3c(c2)OCO3)cc1` it is 206 to 208 °C.
For `CC1(NC(=O)c2ccccc2)COCOC1=O` (racemic) the value was 154 to 159 °C.
Compound `CCCC1(O)CCC2C3CCC4CC(OC(C)=O)CCC4(C)C3CCC21C` (configuration not stated) showed a melting point of 120 to 121 °C.
Turning to `COC1=CC(=O)CC(C)C12Oc1c(Cl)c(OC)cc(OC)c1C2=O` (configuration not stated), the melting point worked out at 219 °C.
As for `Cc1c(C(=O)O)cccc1[N+](=O)[O-]`, the melting point stood at 184 °C.
The figure for `COC(=O)C1(C)CCC(CCc2ccccc2)C1(C)C` (configuration not stated) is 44 °C; for `CCOC(=O)C12C(c3ccccc3OP1(=O)OCC)C1(C(=O)OCC)C2c2ccccc2OP1(=O)OCC` (configuration not stated) it is 249 to 251 °C; for `Cc1ccccc1Nc1[nH]c(=S)nnc1-c1ccccc1` it is 294 °C.
The figure for `O=C(O)c1ccc(-c2cnco2)cc1` is 300 to 301 °C.
For `CCCC(=O)Oc1c[nH]c2cc(Cl)c(Br)cc12` the value was 96 to 100 °C; for `O=[N+]([O-])c1ccc(OC(F)F)cc1`, 34 °C; for `CC1CCC(C)(CNc2ccccc2)C1(C)C` (configuration not stated), 59 °C.
Compound `CCCCCCCCCCCCOC1OC(CO)C(OC2OC(CO)C(O)C(O)C2O)C(O)C1O` (configuration not stated) came in with a melting point of 217 °C.
In turn, `CC(=O)NCCCCC(N)C(=O)O` (configuration not stated) showed a melting point of 250 °C.
`O=C(O)CCSSCCC(=O)O` returned a melting point of 158 °C.
For `O=C1OCCN1N=Cc1ccc([N+](=O)[O-])o1` the value was 255 °C; for `Oc1ccc(Sc2ccc(O)cc2O)c(O)c1`, 173 to 177 °C; for `CCOC(=O)c1cnc2c(c(C)nn2C)c1Oc1cc(Cl)cc(Cl)c1`, 115 to 117 °C.
The figure for `Clc1ccc(C(Cn2ccnc2)OCc2csc3c(Cl)cccc23)c(Cl)c1` (configuration not stated) is 146 °C; for `Cn1cnc(C#N)c1C#N` it is 85 °C; for `O=C(O)c1cccc(Cl)c1F` it is 177 °C.
The figure for `CC(C)NCC(O)COc1cccc2ccccc12` (configuration not stated) is 162 °C.
`COc1nc2c(c(=O)n(C)c(=O)n2C)n1C` registered a melting point of 176 °C.
For the compound `CCO/C=N/c1c(C(=O)OCC)sc2sc(C(=O)OCC)c(/N=C/OCC)c12`, the melting point is 267 °C.
For `O=C(CBr)c1cc2cc(Br)ccc2o1` the value was 140 to 141 °C.
With `CNP(=O)(NC)Oc1ccccc1`, the melting point was determined as 102 °C.
For `O=C1NN=C(C(F)(F)F)C1=NNc1ccccc1`, the melting point worked out at 186 °C.
For `CCOC(=O)c1[nH]c(C)c(Br)c1C` the value was 142 °C; for `NC(=S)C(N)=S`, 170 °C.
For `O=S1(=O)OCCO1` the value was 99 °C; for `Cc1c(NC(=O)C(C)N(C)C)c(=O)n(-c2ccccc2)n1C` (configuration not stated), 181 °C; for `C#CC1(O)CCC2C3CCC4=CC(=O)CCC4=C3C=CC21C` (configuration not stated), 169 °C.
The figure for `ON=Cc1ccc(Cl)cc1Cl` is 134 to 136 °C; for `CN(C)CCc1c[nH]c2cccc(OP(=O)(O)O)c12` it is 224 °C; for `O=C1C=C(Nc2ccccc2)C(=O)c2ccccc21` it is 193 °C.
The compound `CC12CCC3C(CCC4CC5(CCC43C)OCCO5)C1CCC2O` (configuration not stated) returned a melting point of 212 °C.
`OCc1cc(Cl)ccc1O` yielded a melting point of 90 to 91 °C.
The figure for `Cc1cc(N=Nc2ccccc2)c(C(C)C)cc1[N+]([O-])=Nc1ccccc1` is 118 °C; for `FCc1ccccc1` it is -35 °C.
As for `OCCN(CCO)Cc1ccc(COc2ccccc2)cc1`, the melting point came out at 88 °C.
For `NC(=O)NN=Cc1ccccc1` the value was 231 °C.
In turn, `Cc1nn(C)c2sc(C(=O)Cl)cc12` returned a melting point of 165 to 167 °C.
For the compound `Cc1cc(O)cc(O)c1C`, the melting point was found to be 136 °C.
For `O=Cc1ccc(-c2cccc([N+](=O)[O-])c2)o1` the value was 156 to 158 °C; for `CC(=O)Nc1cccnc1`, 131 to 133 °C.
Take `Oc1cc2c(cc1O)Cc1cc(O)c(O)cc1Cc1cc(O)c(O)cc1C2`: the melting point was in the range of 287 to 289 °C.
`C[C@]12CCC(=O)C[C@H]1CC[C@H]1[C@H]3CCC(=O)[C@@]3(C)CC[C@@H]12` displayed a melting point of 179 to 180 °C.
For `Nc1ccncc1[N+](=O)[O-]` the value was 203 °C; for `Nc1nccc(-c2ccncc2)n1`, 81.3 °C; for `CCOC(=O)C(/C=C1\C(=O)C2(C)CCC1C2(C)C)(/C=C1\C(=O)C2(C)CCC1C2(C)C)CC(C)C` (configuration not stated), 156 °C.
The figure for `O=[N+]([O-])c1cccc2cccc(Cl)c12` is 95.8 °C; for `Nc1ccc(F)c(F)c1` it is 21 °C.
For `Cc1noc(-c2ccccc2CO)n1` the value was 91 to 92 °C; for `CCOC(=O)c1cc2c(=O)oc3ccccc3c2nc1C`, 167 °C; for `O=C(O)C(O)c1ccc(C(F)(F)F)cc1` (configuration not stated), 130 to 134 °C.
In the case of `O=C(O)c1scc2c1OCCO2`, the melting point was in the range of 205 to 206 °C.
As to `Clc1ccc(Cl)c(CBr)c1`, the melting point was 41 °C.
The figure for `NC(=O)C1=CNCCC1C(F)(F)F` (configuration not stated) is 184 to 187 °C.
For `C[C@@H]1CNCCN1` the value was 86 to 91 °C; for `CNC(=O)Oc1ccc2c(c1)C1(C)CCN(C)OC1N2C` (configuration not stated), 129 °C.
For `N#C/C(=N\Nc1cccc([N+](=O)[O-])c1)c1nc2ccccc2[nH]1` the value was 306 to 308 °C; for `O=Cc1ccc(C=CC(=O)O)cc1`, 250 to 255 °C; for `CNC(=O)Oc1cccc2ccccc12`, 142 °C.
Turning to `CCOC(=O)c1cc(=O)c2cc(I)ccc2o1`, the melting point was 148 to 150 °C.
As to `Cc1ccc(C(=O)c2nn3c(nc(=O)c4ccccc43)s2)cc1`, the melting point worked out at 211 °C.
The figure for `NNc1cccc2ccccc12` is 117 °C.
Turning to `CCOC(=O)c1cc(C(=O)OCC)[nH]n1`, the melting point was 51 to 55 °C.
The figure for `C(=NCCN=Cc1ccccc1)c1ccccc1` is 52 to 54 °C; for `CN1CCCN(C)CCN(C)CCCN(C)CC1` it is 41 to 43 °C; for `CCOC(=O)c1cc(-c2ccc(Br)s2)on1` it is 51 to 53 °C.
Turning to `CCOC(=O)C1=C(C)NC(=O)NC1c1ccccc1` (configuration not stated), the melting point was found to be 180 °C.
`Brc1nc2ccccc2[nH]1` displayed a melting point of 200 °C.
In turn, `COc1ccc(C(=O)OC(COc2ccc(C=CC(=O)c3ccccc3)cc2)COc2ccc(C(=O)C=Cc3ccccc3)cc2)cc1` (configuration not stated) showed a melting point of 74 °C.
In turn, `Nc1nc(O)cc(Cl)n1` came in with a melting point of 262 °C.
For `CCCCCc1ccc(S(=O)(=O)Cl)cc1` the value was 42 to 44 °C.
The figure for `CCOC(=O)c1cc(C(=O)CBr)on1` is 71 to 73 °C.
`CC(C)(C=O)C(c1ccccc1)C(C(=O)O)C(=O)O` (configuration not stated): the melting point came out at 153 °C.
The figure for `O=Cc1ccc(-c2ccccc2OC(F)(F)F)o1` is 72 to 74 °C; for `O=C(CBr)c1ccc2ccccc2c1` it is 82 to 85 °C.
For `Nc1ncccc1OCc1ccccc1` the value was 94 to 98 °C; for `NC(Cc1ccc(O)c(I)c1)C(=O)O` (configuration not stated), 205 °C; for `Cc1nc(-c2ccc(S(=O)(=O)N3CCOCC3)cc2)c(-c2ccc(S(=O)(=O)N3CCOCC3)cc2)o1`, 245 to 248 °C.
For `O=C1OCCOC(=O)C2CCCCC2C(=O)OCCOC(=O)C2CCCCC12` (configuration not stated) the value was 210 °C; for `O=C1c2c(O)cccc2C(C2OC(CO)C(O)C(O)C2O)c2cc(CO)cc(O)c21` (configuration not stated), 148 °C; for `CCCCCCCCCCCCOCCOCCOCCOCCOCCOCCO`, 27 °C.
`c1ccc(-c2ccc(-c3nnc(-c4ccc(-c5ccccc5)cc4)o3)cc2)cc1` registered a melting point of 237 °C.
`O=C(O)Cc1ccccc1I` had a melting point of 116 °C.
In turn, `NC(=O)c1ccc(F)cc1Cl` came in with a melting point of 152 to 154 °C.
The figure for `CC(=O)OC1CC[C@]2(C)[C@H]3CC[C@]4(C)C(=O)CC[C@H]4[C@@H]3C(=O)C[C@@]2(C)C1` (some centres not stated) is 153 to 157 °C; for `OCCCc1nc2ccccc2[nH]1` it is 164 to 166 °C.
As for `O=C(O)Cc1nn(Cc2nc3cc(C(F)(F)F)ccc3s2)c(=O)c2ccccc12`, the melting point was found to be 197 °C.
Compound `Cc1cc([N+]([O-])=Nc2ccc(N=Nc3ccccc3)cc2)ccc1N=Nc1ccc(N=Nc2ccccc2)cc1` had a melting point of 193 °C.
The compound `O=Nc1c(-c2ccc([N+](=O)[O-])cc2)nc2ncccn12` displayed a melting point of 191 °C.
The figure for `Clc1cccnc1Br` is 60 °C; for `O=C(O)c1cc2cnccc2nc1C(F)(F)F` it is 233 to 235 °C.
For the compound `OC1(Cc2ccccc2)CCNCC1`, the melting point is 80 to 85 °C.
Take `COc1cc([C@@H](O)[C@H](CO)Oc2c(OC)cccc2OC)cc(OC)c1OC`: the melting point was determined as 105 °C.
In turn, `CC(C)C(=O)Cl` had a melting point of -90 °C.
For `Nc1ccc(-c2ccc(N)cc2C(F)(F)F)c(C(F)(F)F)c1` the value was 183 °C; for `COC1CCC(OC)O1` (configuration not stated), -45 °C.

The values above are taken from a melting point compilation (Tetko et al.).
